Nc1cccc(N)n1
Settings | solubility (mole fraction)
in ethanol, 266.95 K | 0.0751
in ethanol, 270.35 K | 0.0853
in ethanol, 274.15 K | 0.0992
in ethanol, 277.45 K | 0.108
in ethanol, 281.15 K | 0.123
in ethanol, 286.35 K | 0.148
in ethanol, 290.15 K | 0.166
in ethanol, 293.55 K | 0.182
in ethanol, 297.15 K | 0.204
in ethanol, 301.15 K | 0.226
in ethanol, 304.55 K | 0.236
in ethanol, 307.95 K | 0.266
in ethanol, 312.05 K | 0.282
in ethanol, 316.25 K | 0.319
in ethanol, 321.25 K | 0.342
in ethylbenzene, 273.25 K | 0.00022
in ethylbenzene, 277.15 K | 0.00026
in ethylbenzene, 282.25 K | 0.00033
in ethylbenzene, 285.55 K | 0.00035
in ethylbenzene, 289.45 K | 0.00046
in ethylbenzene, 293.05 K | 0.00049
in ethylbenzene, 298.65 K | 0.00066
in ethylbenzene, 302.25 K | 0.00069
in ethylbenzene, 305.35 K | 0.00086
in ethylbenzene, 309.55 K | 0.0009
in ethylbenzene, 313.15 K | 0.00113
in ethylbenzene, 317.35 K | 0.0012
in ethylbenzene, 321.25 K | 0.0015
in ethylbenzene, 326.15 K | 0.00164
in ethylbenzene, 329.45 K | 0.00197
in ethylbenzene, 333.35 K | 0.00212
in ethylbenzene, 336.95 K | 0.00252
in ethylbenzene, 341.05 K | 0.00288
in ethylbenzene, 346.25 K | 0.0033
in ethylbenzene, 349.55 K | 0.00385
in ethylbenzene, 353.05 K | 0.0043
in ethylbenzene, 357.05 K | 0.00474
in ethylbenzene, 361.15 K | 0.00577
in isopropanol, 266.25 K | 0.0222
in isopropanol, 269.95 K | 0.028
in isopropanol, 274.15 K | 0.0302
in isopropanol, 277.55 K | 0.0379
in isopropanol, 281.15 K | 0.0401
in isopropanol, 285.65 K | 0.0512
in isopropanol, 290.15 K | 0.0565
in isopropanol, 293.65 K | 0.068
in isopropanol, 297.25 K | 0.0732
in isopropanol, 301.15 K | 0.0887
in isopropanol, 305.15 K | 0.0976
in isopropanol, 308.25 K | 0.114
in isopropanol, 311.15 K | 0.12
in isopropanol, 315.85 K | 0.147
in isopropanol, 319.25 K | 0.159
in methanol, 266.15 K | 0.0598
in methanol, 269.95 K | 0.066
in methanol, 274.15 K | 0.0779
in methanol, 278.05 K | 0.0888
in methanol, 281.15 K | 0.0933
in methanol, 285.95 K | 0.111
in methanol, 290.15 K | 0.125
in methanol, 297.15 K | 0.15
in methanol, 301.15 K | 0.165
in methanol, 304.55 K | 0.178
in methanol, 307.95 K | 0.188
in methanol, 311.15 K | 0.207
in methanol, 317.85 K | 0.233
in o-xylene, 273.35 K | 0.00128
in o-xylene, 277.15 K | 0.0014
in o-xylene, 282.25 K | 0.00185
in o-xylene, 285.55 K | 0.00201
in o-xylene, 289.45 K | 0.00252
in o-xylene, 293.65 K | 0.00283
in o-xylene, 297.55 K | 0.00351
in o-xylene, 302.25 K | 0.00395
in o-xylene, 305.35 K | 0.00469
in o-xylene, 309.55 K | 0.00517
in o-xylene, 314.15 K | 0.0064
in o-xylene, 317.35 K | 0.00695
in o-xylene, 321.25 K | 0.00838
in o-xylene, 325.95 K | 0.00937
in o-xylene, 329.45 K | 0.011
in o-xylene, 333.35 K | 0.0121
in o-xylene, 336.95 K | 0.0144
in o-xylene, 341.15 K | 0.0153
in o-xylene, 346.25 K | 0.0194
in o-xylene, 349.55 K | 0.0226
in o-xylene, 353.45 K | 0.024
in o-xylene, 357.05 K | 0.0292
in o-xylene, 361.05 K | 0.034
in o-xylene, 361.25 K | 0.0367
in toluene, 273.25 K | 0.00149
in toluene, 277.15 K | 0.00191
in toluene, 281.25 K | 0.00214
in toluene, 285.55 K | 0.0027
in toluene, 289.45 K | 0.00304
in toluene, 293.65 K | 0.00375
in toluene, 297.55 K | 0.00417
in toluene, 301.45 K | 0.0051
in toluene, 305.35 K | 0.00558
in toluene, 309.55 K | 0.00704
in toluene, 313.45 K | 0.00733
in toluene, 317.35 K | 0.00919
in toluene, 321.25 K | 0.00942
in toluene, 325.55 K | 0.0124
in toluene, 329.45 K | 0.0127
in toluene, 333.35 K | 0.0162
in toluene, 337.25 K | 0.0164
in toluene, 341.15 K | 0.0207
in toluene, 345.65 K | 0.022
in toluene, 349.55 K | 0.0277
in toluene, 353.45 K | 0.0283
in toluene, 357.35 K | 0.0355

Reference: BigSolDB 2.1
